# Legend:
# Type in all cases: in vivo
# [1] = system: Hordeum vulgare; experiment: Preemergence herbicidal activity (Example 67); design: herbicide rating, HORVW: scale not given here; conditions: pre, 800 g/ha
# Experimental: (§1) Herbicidal evaluation of compounds of the invention is conducted on the following plant species:
# (§2) The soil is a prepared horticultural substrate containing 30% peat, 20% volcanic clay, 30% bark residues and 20% polyamide/styromull in a 1:3 mixture with loamy sand. Test solutions are prepared by dissolving the test compound in acetone containing 0.5% of an alkylphenol/ethylene oxide condensate under the trademark, TRITON® X-155, and diluting with water as needed. The test solutions are applied as a spray to the 3-6 week old seedling plants at dose rates corresponding to 800g/ha in a volume equivalent to 400 L/ha. A pneumatic spraying device employing a Teejet nozzle SS 8002E operating at 3 bar is used for a predetermined time. After spraying, the treated plants are placed on greenhouse benches and cared for in a manner commensurate with conventional greenhouse practice. After 10-21 days, the treated plants are evaluated and rated according to the rating system provided below.
# (§3) The soil surface is then sprayed with test solutions as described in the postemergence evaluation hereinabove. After spraying, the treated cups are placed on greenhouse benches and cared for in the manner commensurate with conventional greenhouse practice. About 1-3 weeks after treatment the cups are evaluated and rated according to the rating system provided hereinabove.
# [2] = system: Alopecurus myosuroides; experiment: Preemergence herbicidal activity (Example 67); design: herbicide rating, ALOMY: scale not given here; conditions: pre, 800 g/ha
# Experimental: as §1, §2, §3
# [3] = system: Abutilon theophrasti; experiment: Preemergence herbicidal activity (Example 67); conditions: pre, 800 g/ha
# Experimental: as §1, §2, §3
# [4] = system: Galium aparine; experiment: Preemergence herbicidal activity (Example 67); conditions: pre, 800 g/ha
# Experimental: as §1, §2, §3
# [5] = system: Veronica persica; experiment: Preemergence herbicidal activity (Example 67); conditions: pre, 800 g/ha
# Experimental: as §1, §2, §3
# [6] = system: Amaranthus retroflexus; experiment: Preemergence herbicidal activity (Example 67); conditions: pre, 800 g/ha
# Experimental: as §1, §2, §3
# [7] = system: Chenopodium album; experiment: Preemergence herbicidal activity (Example 67); conditions: pre, 800 g/ha
# Experimental: as §1, §2, §3
# [8] = system: Zea mays; experiment: Preemergence herbicidal activity (Example 67); conditions: pre, 800 g/ha
# Experimental: as §1, §2, §3
# [9] = system: Ipomoea hederacea; experiment: Preemergence herbicidal activity (Example 67); conditions: pre, 800 g/ha
# Experimental: as §1, §2, §3
# [10] = system: Helianthus annuus; experiment: Preemergence herbicidal activity (Example 67); conditions: pre, 800 g/ha
# Experimental: as §1, §2, §3
# [11] = system: Triticum aestivum; experiment: Preemergence herbicidal activity (Example 67); design: herbicide rating, TRZAW: scale not given here; conditions: pre, 800 g/ha
# Experimental: as §1, §2, §3
# [12] = system: Setaria viridis; experiment: Preemergence herbicidal activity (Example 67); design: herbicide rating, SETVI: scale not given here; conditions: pre, 800 g/ha
# Experimental: as §1, §2, §3
# [13] = system: Abutilon theophrasti; experiment: Postemergence herbicidal activity (Example 67); conditions: pos, 800 g/ha
# Experimental: as §1, §2
# [14] = system: Galium aparine; experiment: Postemergence herbicidal activity (Example 67); conditions: pos, 800 g/ha
# Experimental: as §1, §2
# [15] = system: Setaria viridis; experiment: Postemergence herbicidal activity (Example 67); conditions: pos, 800 g/ha
# Experimental: as §1, §2
# [16] = system: Hordeum vulgare; experiment: Postemergence herbicidal activity (Example 67); conditions: pos, 800 g/ha
# Experimental: as §1, §2
# [17] = system: Veronica persica; experiment: Postemergence herbicidal activity (Example 67); conditions: pos, 800 g/ha
# Experimental: as §1, §2
# [18] = system: Amaranthus retroflexus; experiment: Postemergence herbicidal activity (Example 67); conditions: pos, 800 g/ha
# Experimental: as §1, §2
# [19] = system: Triticum aestivum; experiment: Postemergence herbicidal activity (Example 67); conditions: pos, 800 g/ha
# Experimental: as §1, §2
# [20] = system: Chenopodium album; experiment: Postemergence herbicidal activity (Example 67); conditions: pos, 800 g/ha
# Experimental: as §1, §2
# [21] = system: Zea mays; experiment: Postemergence herbicidal activity (Example 67); conditions: pos, 800 g/ha
# Experimental: as §1, §2
# [22] = system: Alopecurus myosuroides; experiment: Postemergence herbicidal activity (Example 67); conditions: pos, 800 g/ha
# Experimental: as §1, §2
# [23] = system: Ipomoea hederacea; experiment: Postemergence herbicidal activity (Example 67); conditions: pos, 800 g/ha
# Experimental: as §1, §2
# [24] = system: Helianthus annuus; experiment: Postemergence herbicidal activity (Example 67); conditions: pos, 800 g/ha
# Experimental: as §1, §2
# [25] = rated about 1-3 weeks after treatment
smiles,measurement,setting,value
CC(NC(=O)c1nc(C=Cc2ccccc2)ns1)c1cccs1 (racemic) [Example 29],"herbicide rating, HORVW",[1]; [25],0
same,"herbicide rating, ALOMY",[2]; [25],0
same,"herbicide rating, ABUTH",[3]; [25],0
same,"herbicide rating, GALAP",[4]; [25],0
same,"herbicide rating, VERPE",[5]; [25],0
same,"herbicide rating, AMARE",[6]; [25],0
same,"herbicide rating, CHEAL",[7]; [25],4 (30-44%)
same,"herbicide rating, ZEAMX",[8]; [25],0
same,"herbicide rating, IPOHE",[9]; [25],0
same,"herbicide rating, HELAN",[10]; [25],0
same,"herbicide rating, TRZAW",[11]; [25],0
same,"herbicide rating, SETVI",[12]; [25],0
same,"herbicide rating, ABUTH",[13]; rated after 10-21 days,1 (1-5%)
same,"herbicide rating, GALAP",[14]; rated after 10-21 days,1 (1-5%)
same,"herbicide rating, SETVI",[15]; rated after 10-21 days,4 (30-44%)
same,"herbicide rating, HORVW",[16]; rated after 10-21 days,0
same,"herbicide rating, VERPE",[17]; rated after 10-21 days,0
same,"herbicide rating, AMARE",[18]; rated after 10-21 days,1 (1-5%)
same,"herbicide rating, TRZAW",[19]; rated after 10-21 days,0
same,"herbicide rating, CHEAL",[20]; rated after 10-21 days,3 (16-29%)
same,"herbicide rating, ZEAMX",[21]; rated after 10-21 days,0
same,"herbicide rating, ALOMY",[22]; rated after 10-21 days,2 (6-15%)
same,"herbicide rating, IPOHE",[23]; rated after 10-21 days,4 (30-44%)
same,"herbicide rating, HELAN",[24]; rated after 10-21 days,4 (30-44%)
"C[C@H](NC(=O)c1nc(-c2c(F)cccc2F)ns1)c1ccccc1 [Example 59, (S)-3-(2,6-Difluorophenyl)-[1,2,4]thiadiazole-5-carboxylic acid, 1-(phenylethyl)amide]",HOR VW rating,[1],0
same,GAL AP rating,[4],3 (16-29%)
same,VER PE rating,[5],6 (65-79%)
same,AMA RE rating,[6],3 (16-29%)
same,CHE AL rating,[7],0
same,ZEA MX rating,[8],0
same,HEL AN rating,[10],0
same,TRZ AW rating,[11],0
same,SET VI rating,[12],3 (16-29%)
same,GAL AP rating,[14],6 (65-79%)
same,SET VI rating,[15],3 (16-29%)
same,HOR VW rating,[16],3 (16-29%)
same,VER PE rating,[17],8 (91-99%)
same,AMA RE rating,[18],8 (91-99%)
same,TRZ AW rating,[19],3 (16-29%)
same,CHE AL rating,[20],7 (80-90%)
same,ZEA MX rating,[21],0
same,HEL AN rating,[24],6 (65-79%)
O=C(NCc1cccs1)c1nc(-c2c(F)cccc2F)ns1 [Example 60],HOR VW rating,[1],0
same,GAL AP rating,[4],0
same,VER PE rating,[5],0
same,AMA RE rating,[6],0
same,CHE AL rating,[7],0
same,ZEA MX rating,[8],0
same,HEL AN rating,[10],0
same,TRZ AW rating,[11],0
same,SET VI rating,[12],0
same,GAL AP rating,[14],0
same,SET VI rating,[15],0
same,HOR VW rating,[16],0
same,VER PE rating,[17],0
same,AMA RE rating,[18],5 (45-64%)
same,TRZ AW rating,[19],0
same,CHE AL rating,[20],0
same,ZEA MX rating,[21],3 (16-29%)
same,HEL AN rating,[24],3 (16-29%)
COc1ccc(-c2nsc(C(=O)NC(C)c3ccsc3)n2)cc1 (racemic) [Example 61],HOR VW rating,[1],0
same,ALO MY rating,[2],0
same,ABU TH rating,[3],0
same,GAL AP rating,[4],0
same,VER PE rating,[5],0
same,AMA RE rating,[6],0
same,ZEA MX rating,[8],0
same,IPO HE rating,[9],0
same,HEL AN rating,[10],0
same,TRZ AW rating,[11],0
same,SET VI rating,[12],0
same,ABU TH rating,[13],0
same,GAL AP rating,[14],0
same,SET VI rating,[15],0
same,HOR VW rating,[16],0
same,VER PE rating,[17],0
same,AMA RE rating,[18],0
same,TRZ AW rating,[19],0
same,ZEA MX rating,[21],0
same,ALO MY rating,[22],1 (1-5%)
same,IPO HE rating,[23],0
same,HEL AN rating,[24],2 (6-15%)
"CC(NC(=O)c1nc(-c2c(F)cccc2F)ns1)c1cccs1 (racemic) [Example 58, (R/S)-3-(2,6-Difluorophenyl)-[1,2,4]thiadiazole-5-carboxylic acid, [1-(2-thienyl)ethyl]amide]",HOR VW rating,[1],0
same,GAL AP rating,[4],0
same,VER PE rating,[5],0
same,AMA RE rating,[6],0
same,CHE AL rating,[7],0
same,ZEA MX rating,[8],0
same,HEL AN rating,[10],0
same,TRZ AW rating,[11],0
same,SET VI rating,[12],0
same,GAL AP rating,[14],6 (65-79%)
same,SET VI rating,[15],2 (6-15%)
same,HOR VW rating,[16],3 (16-29%)
same,VER PE rating,[17],4 (30-44%)
same,AMA RE rating,[18],7 (80-90%)
same,TRZ AW rating,[19],2 (6-15%)
same,CHE AL rating,[20],6 (65-79%)
same,ZEA MX rating,[21],0
same,HEL AN rating,[24],9 (100% effect)

# Reference: patent EP0726261A1, “Herbidical 1,2,4 thiadiazoles” (American Cyanamid Company, priority 1995, dated 1996)
